Assay results: patent US20220144841A1, “TRISUBSTITUTED PYRAZOLO [1,5-A] PYRIMIDINE COMPOUNDS AS CDK7 INHIBITORS” (THE TRANSLATIONAL GENOMICS RESEARCH INSTITUTE, priority 2019, published 2022)
Counter-ions that a name gives are not always drawn.

The compounds below were run against T1, CDK7/CycH/MAT1 (Homo sapiens, UniProt P50613) (assay: Kinase ADP-Glo Assay). Details: ADP-Glo assay (compounds without *), ATP 1 μM, 60 minutes at room temperature.
T1 construct: purchased ProQinase 0366-0360-4
Assay type: biochemical
Experimental: (§1) Assay Buffer: 50 mM HEPES, 3 mM MgCl2, 3 mM MnCl2, 1 mM DTT, 3 μM Na3VO4, pH 7.5
Substrate RB: CTF Peptide (ProQinase #: 0040-0000-6)
ADP-Glo™ Assay (Promega #: V9101): ATP: 10 mM, ADP-Glo™ Reagent, Kinase Detection Reagent
384-well white assay plates
(§2) A ten point serial dilution of compound was prepared at 5× concentration in assay buffer with the final assay concentrations starting at 30 μM, 10 μM, 3 μM, 1 μM . . . 0 μM. Enzyme, substrate, and ATP were used at 40 ng, 200 ng (or 400 ng)^+ and 1 μM, respectively. The assay plate was set up by mixing the components in a total reaction volume of 10 μL per well. The plate was centrifuged gently for 10 seconds and incubated at room temperature (RT) for 60 minutes in the dark. The ADP-Glo Reagent and kinase detection reagent were added and incubated as recommended. The reaction was quantified by measuring luminescence on the Perkin Elmer Envision plate reader. Data was analyzed using Graphpad Prism 7 software. *With CDK2 enzyme, 400 ng of substrate was used.

T1 sequence (P50613 whole entry): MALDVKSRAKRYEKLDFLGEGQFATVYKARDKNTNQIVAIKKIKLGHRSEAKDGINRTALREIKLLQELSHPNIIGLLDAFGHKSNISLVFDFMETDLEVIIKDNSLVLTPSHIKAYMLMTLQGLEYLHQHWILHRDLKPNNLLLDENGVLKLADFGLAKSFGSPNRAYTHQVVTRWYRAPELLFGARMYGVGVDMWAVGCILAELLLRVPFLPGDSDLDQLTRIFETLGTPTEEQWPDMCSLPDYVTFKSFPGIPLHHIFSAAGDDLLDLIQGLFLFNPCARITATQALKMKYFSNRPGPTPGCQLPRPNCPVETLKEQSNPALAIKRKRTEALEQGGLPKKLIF
T1 sequence (P51946 whole entry partner): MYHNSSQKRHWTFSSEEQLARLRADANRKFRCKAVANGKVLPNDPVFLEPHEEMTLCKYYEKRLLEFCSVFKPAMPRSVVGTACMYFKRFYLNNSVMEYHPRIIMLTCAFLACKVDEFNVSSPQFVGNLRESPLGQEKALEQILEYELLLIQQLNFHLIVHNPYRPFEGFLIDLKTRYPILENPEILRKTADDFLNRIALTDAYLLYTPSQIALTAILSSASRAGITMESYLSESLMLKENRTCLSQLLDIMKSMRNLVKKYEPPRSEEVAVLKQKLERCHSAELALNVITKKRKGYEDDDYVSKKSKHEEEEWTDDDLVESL
T1 sequence (P51948 whole entry partner): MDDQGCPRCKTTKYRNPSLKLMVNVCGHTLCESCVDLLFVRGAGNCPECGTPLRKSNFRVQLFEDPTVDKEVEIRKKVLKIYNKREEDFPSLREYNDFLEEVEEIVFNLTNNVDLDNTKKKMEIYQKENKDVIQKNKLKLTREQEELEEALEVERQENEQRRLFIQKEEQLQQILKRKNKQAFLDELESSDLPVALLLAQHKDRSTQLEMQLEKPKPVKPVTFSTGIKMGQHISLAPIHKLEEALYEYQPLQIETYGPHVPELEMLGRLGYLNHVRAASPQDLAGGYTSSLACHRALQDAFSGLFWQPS

Structure (SMILES) | IC50
Cc1cc(Nc2cc(O[C@H]3CCCNC3)nc3c(C4CCC4)cnn23)cc(C(F)(F)F)c1 [Compound I-66, (S)-3-cyclobutyl-N-(5-methyl-3-trifluoromethylphenyl)-5-((piperidin-3-yl)oxy)pyrazolo[1,5-a]pyrimidin-7-amine] | < 100 nM
Cc1cc(F)cc(Nc2cc(O[C@@H]3CNC[C@@H](O)C3)nc3c(C4CCC4)cnn23)c1 (relative stereo) [Compound I-57, trans-5-((3-cyclobutyl-7-((3-fluoro-5-methylphenyl)amino)pyrazolo [1,5-a]pyrimidin-5-yl)oxy)piperidin-3-ol] | < 100 nM
Cc1cc(F)cc(Nc2cc(NC[C@H]3CCNC[C@@H]3O)nc3c(C4CC4)cnn23)c1 [Compound I-49, (3R,4R)-4-((3-cyclopropyl-7-((3-fluoro-5-methylphenyl)amino)pyrazolo [1,5-a]pyrimidin-5-yl)aminomethyl)piperidin-3-ol] | < 100 nM
Cc1cc(F)cc(Nc2cc(N[C@@H]3CNC[C@@H](O)C3)nc3c(C4CCC4)cnn23)c1 [Compound I-56, (3S,5S)-5-((3-cyclobutyl-7-((3-fluoro-5-methylphenyl)amino)pyrazolo [1,5-a]pyrimidin-5-yl)amino)piperidin-3-ol] | 100 to 1000 nM
Cc1cc(F)cc(Nc2cc(NC[C@H]3CCCNC3)nc3c(C4CCC4)cnn23)c1 [Compound I-59, (S)-3-cyclobutyl-N^7-(3-fluoro-5-methylphenyl)-N^5-((piperidin-3-yl)methyl)pyrazolo[1,5-a]pyrimidine-5,7-diamine] | > 1000 nM

The remaining lines, values ahead:

IC50 | Structure (SMILES)
> 1000 nM | O[C@H]1CCNC[C@@H]1Nc1cc(Nc2cccc(F)c2)n2ncc(C3CC3)c2n1 [Compound I-21, (3S,4S)-3-((3-cyclopropyl-7-((3-fluorophenyl)amino)pyrazolo [1,5-a]pyrimidin-5-yl)amino)piperidin-4-ol hydrochloride]
100 to 1000 nM | O[C@@H]1CNCC[C@H]1CNc1cc(Nc2cccc(F)c2)n2ncc(C3CC3)c2n1 [Compound I-17]
> 1000 nM | O[C@@H]1CNC[C@@H](Nc2cc(Nc3cccc(F)c3)n3ncc(C4CC4)c3n2)C1 [Compound I-22, hydrochloride]
100 to 1000 nM | N[C@H]1CC[C@@H](Nc2cc(Nc3cccc(F)c3)n3ncc(C4CC4)c3n2)CC1 [Compound I-7, Cis-N^5-(4-aminocyclohexyl)-3-cyclopropyl-N^7-(3-fluorophenyl)pyrazolo[1,5-a]pyrimidine-5,7-diamine]

What follows are compounds tested against T1, CDK7/CycH/MAT1 (assay: Kinase Glo Assay). Details: Kinase-Glo Assay was used (compounds marked *), ATP 1 μM, 60 minutes at room temperature.
Assay type: biochemical
Experimental: as §1
Kinase-Glo™ Assay (Promega #: V6711): ATP: 10 mM, Kinase-Glo™ Reagent 384-well white assay plates
as §2, with “Enzyme” for “Enzyme, substrate,”, “40” for “40 ng, 200”, “ng” for “ng (or 400 ng)^+”, “Kinase-Glo” for “ADP-Glo”, “was” for “and kinase detection reagent were”, “software.” for “software. *With CDK2 enzyme, 400 ng of substrate was used.”

Structure (SMILES) | IC50
N#Cc1cnn2c(NCc3cc(Cl)cc(Cl)c3)cc(N[C@H]3CCCNC3)nc12 [Compound I-26, (S)-7-((3,5-dichlorobenzyl)amino)-5-((piperidin-3-yl)amino)pyrazolo[1,5-a]pyrimidine-3-carbonitrile] | 100 to 1000 nM
N#Cc1cnn2c(NCc3cccc(Cl)c3)cc(N[C@H]3CCCNC3)nc12 [Compound I-28, (S)-7-((3-chlorobenzyl)amino)-5-((piperidin-3-yl)amino)pyrazolo[1,5-a]pyrimidine-3-carbonitrile] | 100 to 1000 nM
O[C@H]1CCNC[C@@H]1Nc1cc(Nc2cccc(F)c2)n2ncc(Cl)c2n1 [Compound I-3, (3S,4S)-3-((3-chloro-7-((3-fluorophenyl)amino)pyrazolo [1,5-a]pyrimidin-5-yl)amino)piperidin-4-ol] | > 1000 nM
N#Cc1cnn2c(NCc3cc(F)cc(Cl)c3)cc(N[C@H]3CCCNC3)nc12 [Compound I-27, (S)-7-((3-chloro-5-fluorobenzyl)amino)-5-((piperidin-3-yl)amino)pyrazolo[1,5-a]pyrimidine-3-carbonitrile] | 100 to 1000 nM

Other lines, results leading:

IC50 | Structure (SMILES)
< 100 nM | Fc1cccc(Nc2cc(N[C@H]3CCCNC3)nc3c(Cl)cnn23)c1 [Compound I-2, (S)-3-chloro-N^7-(3-fluorophenyl)-N^5-(piperidin-3-yl)pyrazolo[1,5-a]pyrimidine-5,7-diamine]
> 1000 nM | Fc1cccc(Nc2cc(N[C@H]3CCCCNC3)nc3c(C4CC4)cnn23)c1 [Compound I-5, (S)-N^5-(azepan-3-yl)-3-cyclopropyl-N^7-(3-fluorophenyl)pyrazolo[1,5-a]pyrimidine-5,7-diamine]
> 1000 nM | O[C@H]1CCNC[C@@H]1Nc1cc(Nc2cccc(F)c2)n2ncc(C3CCC3)c2n1 [Compound I-24, (3S,4S)-3-((3-cyclobutyl-7-((3-fluorophenyl)amino)pyrazolo [1,5-a]pyrimidin-5-yl)amino)piperidin-4-ol hydrochloride]
100 to 1000 nM | OCCN1CCC[C@H](Nc2cc(NCc3cccc(F)c3)n3ncc(C4CC4)c3n2)C1 [Compound I-33, (S)-2-(3-((3-cyclopropyl-7-((3-fluorobenzyl)amino)pyrazolo [1,5-a]pyrimidin-5-yl)amino)piperidin-1-yl)ethan-l-ol]
100 to 1000 nM | Fc1cccc(Nc2cc(N[C@H]3CCCNC3)nc3c(C4CCC4)cnn23)c1 [Compound I-23, (S)-3-cyclobutyl-N^7-(3-fluorophenyl)-N^5-(piperidin-3-yl)pyrazolo[1,5-a]pyrimidine-5,7-diamine hydrochloride]
100 to 1000 nM | Fc1cccc(Nc2cc(N[C@H]3CCCNC3)nc3c(C4CC4)cnn23)c1 [Compound I-19, hydrochloride]
100 to 1000 nM | Fc1cccc(CNc2cc(N[C@H]3CCCNC3)nc3c(C4CC4)cnn23)c1 [Compound I-32, (S)-3-cyclopropyl-N^7-(3-fluorobenzyl)-N^5-(piperidin-3-yl)pyrazolo[1,5-a]pyrimidine-5,7-diamine hydrochloride]
100 to 1000 nM | Clc1cccc(Nc2cc(N[C@H]3CCCNC3)nc3c(Cl)cnn23)c1 [Compound I-1, (S)-3-chloro-N^7-(3 - chlorophenyl)-N^5-(piperidin-3-yl)pyrazolo[1,5-a]pyrimidine-5,7-diamine]
